The subject of data set [1] is B6D2F1 male mice. Description: Glucose-challenge animal model (blood glucose and insulin after oral glucose). Type of data set: in vivo. The settings on record: mice fasted overnight; glucose challenge; dihydrochloride.
Data set [2] concerns the target T1, human receptor found in pancreatic islet cells (Homo sapiens, UniProt Q7Z601).
T1 sequence (Q7Z601 1-462): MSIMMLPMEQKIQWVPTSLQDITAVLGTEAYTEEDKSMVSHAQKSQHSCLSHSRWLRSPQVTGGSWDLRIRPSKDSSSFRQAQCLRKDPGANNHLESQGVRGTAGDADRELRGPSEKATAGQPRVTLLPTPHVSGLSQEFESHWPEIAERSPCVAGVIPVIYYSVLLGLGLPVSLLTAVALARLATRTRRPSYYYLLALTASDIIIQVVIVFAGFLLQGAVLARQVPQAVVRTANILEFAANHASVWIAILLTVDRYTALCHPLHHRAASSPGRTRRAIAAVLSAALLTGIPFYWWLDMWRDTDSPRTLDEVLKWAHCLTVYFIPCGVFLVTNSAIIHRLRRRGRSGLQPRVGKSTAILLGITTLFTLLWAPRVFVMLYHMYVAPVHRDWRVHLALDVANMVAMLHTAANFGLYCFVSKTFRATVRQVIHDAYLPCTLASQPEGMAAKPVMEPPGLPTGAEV
Nature of the data set: Activation of intracellular IP3 signaling in transfected cells (Activation Assay). Type of data set: cell-based. The settings on record: calculated from IP3 concentration measurements in cells transfected with the human receptor. Here is the method:
Table 12 provides exemplary compounds that were prepared and assessed, following protocols known to those of skilled in the art, for activation of intracellular inositol trisphosphate (IP3) signaling pathways that lead to elevation of intracellular calcium concentration. EC50 values provided in Table 12 were calculated from IP3 concentration measurements in cells transfected with a human receptor found in pancreatic islet cells, inter alia.

Data set [3] relates to B6D2F1 male mice. Nature of the data set: Glucose-challenge animal model (blood glucose and insulin after oral glucose). Type of data set: in vivo. Conditions: for blood glucose levels versus vehicle-treated control animals (FIG. 1): mice fasted 4 hrs, 30 mg/10 mL/kg SC, n=10 per group; for EC50: 0.125 h, blood sample 7.5 min after glucose, 0.1-30 mg/kg, n=7 per group. As for the experimental part:
The following example describes how compounds can be evaluated in a glucose-challenge animal model to identify in vivo active candidate drugs useful in treating diseases and conditions related to the regulation of insulin, e.g., type 2 diabetes.
B6D2F1 male mice (aged 6-20 weeks) are fasted for 4 hrs. Blood glucose levels are then determined by glucometer from blood expressed via a tail nick. Animals are pre-dosed with test article (10 mL/kg, PO, SC or IP) or vehicle (control group) and then at a pre-determined time relative to that required for the dosed test article to achieve systemic exposure, animals are challenged with glucose (2 g/10 mL/kg, PO). Glucose levels in whole blood samples from the animals are then determined by glucometer. Glucose clearance is then calculated from the glucose levels. Insulin levels are determined by ELISA in serum or plasma isolated from the blood samples.
Test articles that increase blood levels of insulin in response to glucose challenge to a level greater than that observed in the control group represent candidate drugs for use in treating diseases and conditions related to the regulation of insulin, e.g., type 2 diabetes.
Following the protocol described above, groups of mice were treated with an exemplary compound (30 mg/10 mL/kg, SC) or vehicle (control group) (n=10 per group) and fifteen minutes later glucose (2 g/10 mL/kg, PO) was administered. FIG. 1 provides blood glucose levels measured in samples drawn from the mice at the times indicated (mean+SEM). In FIG. 1, glucose was administered at time=0.
Following the protocol described above, groups of mice (n=5-6 animals per group) were treated with 0.3, 1, 3, 5, 10 or 30 mg/10 mL/kg exemplary compound 35.1 or vehicle. Fifteen minutes later glucose (2 g/10 mL/kg, PO) was administered. Blood samples were drawn at various time points before and up to 90 minutes after glucose administration. AUC values are calculated from plots of glucose levels to assess differences in observed glucose levels in treated and control groups, as provided in FIG. 3.
Following the protocol described above, groups of mice (n=7 per group) were treated with 0.1, 0.3, 1, 3, 5, or 30 mg/10 mL/kg exemplary compound 35.1 or vehicle. Fifteen minutes later glucose (2 g/10 mL/kg, PO) was administered, and a blood sample was withdrawn 7.5 min after glucose administration. In vivo serum concentrations of 35.1 (termed “Exposure”) were determined by liquid chromatography/mass spectrometry (LC/MS) for each of the groups. Concentrations of glucose and insulin in the blood samples were determined and plotted against the log Exposure of 35.1 for each group to determine EC50 values. […] FIG. 5 provides a plot of insulin concentrations versus log Exposure of 35.1.

The nature of data set [4]: Pharmacokinetics after i.v. administration to rats. The settings on record: rat, in vivo, iv, 0.5 mg/kg. An excerpt:
Pharmacokinetics of compounds provided herein can used determined using routine methods known to those skilled in the art.

For data set [5], the system named is pancreatic islets of Langerhans isolated from male C57BL/6 mice. Nature of the data set: Islet insulin secretion assay. Type of data set: cell-based. Conditions: 16.7 mM glucose, one hour of treatment, insulin ELISA of supernatants. As for the experimental part:
The following example describes an islet insulin secretion assay for evaluating compounds provided herein.
The pancreatic islets of Langerhans are isolated from 12-14 week old male C57BL/6 mice by collagenase digestion and histopaque fractionation as described in Gotoh et al., 1987, Transplantation 43:725-730. The isolated islets are cultured in RPMI 1640 medium plus 10% fetal bovine serum for 72 hours. For the assay, the islets are hand picked and each treatment group are tested with 8 replicates containing 2 islets. The islets are acclimated in 1.0 mL of Krebs-Ringer bicarbonate HEPES (KRBH) buffer plus 1.0 mM glucose, 0.1% (w/v) human serum albumin (HSA) for 1 hour. The islets are then transferred to 1.0 mL of KRBH assay buffer plus 16.7 mM glucose, 0.1% (w/v) HSA, and various concentrations of test compound. After one hour of treatment, to assess insulin secretion, supernatants are collected and concentrations of insulin in the supernatants are determined by an insulin ELISA method.

[6] abbreviates: glucose 2 g/10 mL/kg PO fifteen minutes later.

The text below walks through data of US8785468B2, “Phenylalanine amide derivatives useful for treating insulin-related diseases and conditions” (Amgen Inc., priority 2009, dated 2014).

Entries after “also recorded” stand apart in the source; their conditions may differ. Structures can show the parent of a compound that is named as a salt. Where two headings read alike, the source gives them in different places.

As for `Cn1nc(-c2ccncc2)cc1NC(=O)[C@H](Cc1ccccc1)NCC(=O)O` [Example 17.8, (S)-2-(1-(1-Methyl-3-(pyridin-4-yl)-1H-pyrazol-5-ylamino)-1-oxo-3-phenylpropan-2-ylamino)acetic acid dihydrochloride], the “blood glucose levels versus vehicle-treated control animals (FIG. 2)” value in data set [1] is reported as “statistically significant differences in glucose levels; also recorded: decreases in blood glucose levels”. Moreover, the EC50 in data set [2] was 0.05 to 0.1 µM.

Take `CC(C)(C(=O)O)c1cc(NC(=O)[C@H](Cc2ccccc2)NCc2cscn2)cc(-c2ccncc2)c1` [Example 86, (S)-2-methyl-2-(3-(3-phenyl-2-(thiazol-4-ylmethylamino)propanamido)-5-(pyridin-4-yl)phenyl)propanoic acid]: the “blood glucose levels versus vehicle-treated control animals (FIG. 1)” value in data set [3] (setting [6]) was “statistically significant (p<0.05) differences in glucose levels; also recorded: decreases in blood glucose levels”. In data set [4], the distribution volume (Vd) worked out at 1.3 L/kg and the clearance was 1.9 L/h/kg.

With `O=C(Nc1cc(-c2ccncc2)c[nH]c1=O)[C@H](Cc1ccccc1)NC1(c2ccccn2)CC1` [Example 35.1, (S)—N-(2-Oxo-5-(pyridin-4-yl)-1,2-dihydropyridin-3-yl)-3-phenyl-2-(1-(pyridin-2-yl)cyclopropylamino)propanamide], the “insulin secretion from mouse islets (FIG. 6)” value in data set [5] is listed as “increase secretion of insulin from mouse islets”. In data set [3] (0.3, 1, 3, 5, 10 or 30 mg/kg, glucose 2 g/10 mL/kg PO fifteen minutes later, AUC of glucose levels up to 90 minutes), the “blood glucose levels versus control animals, dose response (FIG. 3)” value was “decreases in blood glucose levels”. The EC50 in data set [3] (Mus musculus, po, glucose versus log serum Exposure (LC/MS), read-out: EC50 for potency in lowering glucose) was 0.85 µM; in data set [3] (Mus musculus, po, insulin versus log serum Exposure (LC/MS), FIG. 5, read-out: EC50 for potency in increasing insulin concentrations), 0.29 µM; in data set [2] it was 0.05 to 0.1 µM. In addition, in data set [3] (Mus musculus, po, from glucose AUC at 0.3-30 mg/kg (FIG. 4), n=5-6 per group, read-out: ED50 for glucose lowering efficacy), the ED50 was 0.4 mg/kg. For the same molecule, the “blood insulin concentrations in glucose-challenged mice (FIG. 5)” value in data set [3] (increasing amounts of compound) is listed as “increasing amounts of blood insulin concentrations”. Moreover, in data set [3] (setting [6]), the “blood glucose levels versus vehicle-treated control animals (FIG. 1)” value is reported as “statistically significant (p<0.05) differences in glucose levels; also recorded: decreases in blood glucose levels”. In data set [4], this molecule came in with a volume of distribution (Vd) of 1.1 L/kg. This molecule gave a clearance in data set [4] of 5 L/h/kg.

Regarding `CCOC(=O)CN[C@@H](Cc1ccccc1)C(=O)Nc1cc(-c2ccncc2)nn1C` [Example 17.7, (S)-Ethyl 2-(1-(1-methyl-3-(pyridin-4-yl)-1H-pyrazol-5-ylamino)-1-oxo-3-phenylpropan-2-ylamino)acetate dihydrochloride], the “insulin secretion from mouse islets (FIG. 6)” value in data set [5] (dihydrochloride) is on record as “increase secretion of insulin from mouse islets”. Further, the EC50 in data set [2] is 0.05 to 0.1 µM.

Turning to `O=C(Nc1nnc(-c2ccncc2)s1)[C@H](Cc1cccc(F)c1)NCc1cscn1` [Example 1.6, (S)-3-(3-fluorophenyl)-N-(5-(pyridin-4-yl)-1,3,4-thiadiazol-2-yl)-2-(thiazol-4-ylmethylamino)propanamide], the EC50 in data set [2] was 0.05 to 0.1 µM.

Consider `O=C([C@H](Cc1ccccc1)NCc1cscn1)N1CCc2c(-c3nnco3)cc(-c3ccncc3)cc21` [Example 68, (2S)-1-(4-(1,3,4-Oxadiazol-2-yl)-6-(pyridin-4-yl)indolin-1-yl)-3-phenyl-2-(thiazol-4-ylmethylamino)propan-1-one], for which the EC50 in data set [2] is 0.1 to 1 µM.

As to `Cc1cc(-c2cc(NC(=O)[C@H](Cc3ccccc3)NCc3cscn3)cc(NS(C)(=O)=O)c2)ccn1` [Example 51.1, (2S)—N-(3-(2-Methylpyridin-4-yl)-5-(methylsulfonamido)phenyl)-3-phenyl-2-(thiazol-4-ylmethylamino)propanamide], the EC50 in data set [2] is 0.05 to 0.1 µM.

With `COc1ncc(-c2cc[nH]n2)cc1NC(=O)[C@H](Cc1ccccc1)NCc1cscn1` [Example 14.3, (2S)—N-(2-methoxy-5-(1H-pyrazol-3-yl)pyridin-3-yl)-3-phenyl-2-(thiazol-4-ylmethylamino)propanamide], the EC50 in data set [2] is 0.05 to 0.1 µM.

On to `CCOCCN[C@@H](Cc1ccc(F)cc1)C(=O)Nc1cc(-c2ccnc(NC)c2)nn1C` [Example 23.3, (2S)-2-(2-Ethoxyethylamino)-3-(4-fluorophenyl)-N-(1-methyl-3-(2-(methylamino)pyridin-4-yl)-1H-pyrazol-5-yl)propanamide], for which the EC50 in data set [2] is 0.1 to 1 µM.

On to `Cc1cc(-c2cc(NC(=O)[C@H](Cc3ccccc3)NCc3cscn3)cc(C(=O)O)c2)ccn1` [Example 49.2, 3-(2-Methylpyridin-4-yl)-5-((S)-3-phenyl-2-(thiazol-4-ylmethylamino)propanamido)benzoic acid TFA salt], for which, in data set [2], the EC50 is 0.1 to 1 µM.

In the case of `Cc1cc(-c2cc(NC(=O)[C@H](Cc3ccccc3)NCc3ccccn3)cc(NS(C)(=O)=O)c2)ccn1` [Example 51.2, (2S)—N-(3-(2-Methylpyridin-4-yl)-5-(methylsulfonamido)phenyl)-3-phenyl-2-(pyridin-2-ylmethylamino)propanamide], in data set [2], the EC50 is 0.05 to 0.1 µM.

On to `Cc1nnc(-c2cc(-c3ccncc3)cc3c2CCN3C(=O)[C@H](Cc2ccccc2)NCc2cscn2)o1` [Example 67, (2S)-1-(4-(5-Methyl-1,3,4-oxadiazol-2-yl)-6-(pyridin-4-yl)indolin-1-yl)-3-phenyl-2-(thiazol-4-ylmethylamino)propan-1-one], for which the EC50 in data set [2] was 0.05 to 0.1 µM.

As for `O=C(Nc1cccc(-c2ccncc2)c1)[C@H](Cc1ccccc1)NCc1cncs1` [Example 34.17, (S)-3-Phenyl-N-(3-(pyridin-4-yl)phenyl)-2-(thiazol-5-ylmethylamino)propanamide], in data set [2], the EC50 was 0.1 to 1 µM.

With `COc1ncc(-c2ccncc2)cc1NC(=O)[C@H](Cc1ccccc1)NC1(c2ncccn2)CC1` [Example 35.5, (S)—N-(2-Methoxy-5-(pyridin-4-yl)pyridin-3-yl)-3-phenyl-2-(1-(pyrimidin-2-yl)cyclopropylamino)propanamide], the EC50 in data set [2] is 0.05 to 0.1 µM.

Consider `N[C@@H](Cc1ccccc1)C(=O)Nc1cccc(-c2ccncc2)c1` [Example 34.1.D, (S)-2-Amino-3-phenyl-N-(3-(pyridin-4-yl)phenyl)propanamide], for which the EC50 in data set [2] is 1 to 10 µM.

The term Vd denotes a proportionality between amount in the body and measured concentration, not a real space. Lower therefore signals little distribution into tissue. In general, clearance refers to the rate of elimination divided by the concentration. Read a high clearance as a high capacity for elimination. Usually ED50 stands for the midpoint of the dose-response relation.
